Assay results as given in US9045556B2, “Therapeutic agent for cancer” (NEC Corporation, priority 2007, dated 2015).

System: EG7 cells

CC[C@H](C)[C@H](NC(=O)[C@@H](NC(=O)[C@@H](N)CO)[C@@H](C)CC)C(=O)N[C@@H](CC(N)=O)C(=O)N[C@@H](Cc1ccccc1)C(=O)N[C@@H](CCC(=O)O)C(=O)N[C@@H](CCCCN)C(=O)N[C@@H](CC(C)C)C(=O)O [OVA-I peptide]
cytotoxic activity of splenocytes against EG7: only low cytotoxic activity was induced
